Experimental findings from patent US8741897B2, “Glucocorticoid mimetics, methods of making them, pharmaceutical compositions and uses thereof” (Boehringer Ingelheim Pharmaceuticals Inc., priority 2003, dated 2014) are described below.

The assay deals with glucocorticoid receptor function. The assay can be described thus: one or more of the above assays (GR binding and glucocorticoid receptor cell assays: aromatase, IL-6, TAT, MMTV-Luc, IL-8, ICAM-Luc). Format: cell-based. To be noted: assay not specified per compound. As for the experimental part:
B. Glucocorticoid Receptor Cell Assays
1. Induction of Aromatase in Fibroblasts (Cell Assay for Transactivation)
Dexamethasone, a synthetic ligand to the glucocorticoid receptor (GR), induces expression of aromatase in human foreskin fibroblast cells. The activity of aromatase is measured by the conversion of testosterone to estradiol in culture media.
On the day of the experiment, the media in the wells is replaced with fresh media. Cells are treated with test compounds to final concentrations of 10^−5 M to 10^−8 M, and testosterone to a final concentration of 300 ng/mL. Each well has a total volume of 100 μL. Samples are made in duplicates. Control wells include: (a) wells that receive testosterone only, and (b) wells that receive testosterone plus 2 μM of dexamethasone to provide maximum induction of aromatase. Plates are incubated at 37° C. overnight (15 to 18 hours), and supernatants are harvested at the end of incubation. […] The amount of estradiol is inversely proportional to the ELISA signals in each well. The extent of aromatase induction by test compounds is expressed as a relative percentage to dexamethasone. EC50 values of test compounds are derived by non-linear curve fitting.
2. Inhibition of IL-6 Production in Fibroblasts (Cell Assay for Transrepression)
Human foreskin fibroblast cells produce IL-6 in response to stimulation by proinflammatory cytokine IL-1.
On the next day, media in the wells is replaced with fresh media. Cells are treated with IL-1 (rhIL-1α, R&D Systems Cat. No. 200-LA) to a final concentration of 1 ng/mL, and with test compounds to final concentrations of 10^−5 M to 10^−8 M, in a total volume of 200 μL per well. Samples are done in duplicates. […] Positive control wells receive IL-1 only and represent maximum (or 100%) amount of IL-6 production. Plates are incubated at 37° C. overnight (15 to 18 hours), and supernatants are harvested at the end of incubation. IL-6 levels in the supernatants are determined by the ELISA kits for IL-6 (MedSystems Diagnostics GmbH, Vienna, Austria, Cat. No. BMS213TEN) according to manufacture's instructions. The extent of inhibition of IL-6 by test compounds is expressed in percentage relative to positive controls. IC50 values of test compounds are derived by non-linear curve fitting.
Evaluation of agonist or antagonist activity of compounds binding to the glucocorticoid receptor may be determined by any of the assays.
3. Modulation of Tyrosine Aminotransferase (TAT) Induction in Rat Hepatoma Cells
Testing of compounds for agonist or antagonist activity in induction of tyrosine aminotransferase (TAT) in rat hepatoma cells.
H4-II-E-C3 cells were incubated overnight in 96 well plates (20,000 cells/100 μL/well) in MEM medium containing 10% heat inactivated FBS and 1% nonessential amino acids. On the next day, cells were stimulated with the indicated concentrations of dexamethasone or test compound (dissolved in DMSO, final DMSO concentration 0.2%) for 18 hours. Control cells were treated with 0.2% DMSO. After 18 hours, the cells were lysed in a buffer containing 0.1% Triton X-100 and the TAT activity was measured in a photometric assay using tyrosine and alpha-ketoglutarate as substrates.
For measuring antagonist activity, the hepatoma cells were pre-stimulated by addition of dexamethasone (concentration ranges from 3×10^−9 M to 3×10^−8 M) shortly before the test compound was applied to the cells.
4. Modulation of MMTV-Luc Induction in HeLa Cells
Testing of compounds for agonist or antagonist activity in stimulation of MMTV-(mouse mammary tumor virus) promoter in HeLa cells.
Cells were cultured overnight in DMEM medium without phenol red, supplemented with 3% CCS (charcoal treated calf serum) and then transferred to 96 well plates (15,000 cells/100 μL/well).

For the compound `CC(C)(CC(O)(Cc1cc2cc(-c3ccccn3)ccc2[nH]1)C(F)(F)F)c1cc(Cl)cc2c1OCC2` (stereo not shown) [4-(5-Chloro-2,3-dihydrobenzofuran-7-yl)-1,1,1-trifluoro-4-methyl-2-(5-pyridin-2-yl-1H-indol-2-ylmethyl)pentan-2-ol], the “activity as agonists of the glucocorticoid receptor function in one or more of the above assays” value (shortened to “activity as agonists”) is “potent agonists”.

Turning to `COc1ccc(-c2cccnc2)cc1C(C)(C)CC(O)(Cc1cc2cnccc2[nH]1)C(F)(F)F` (stereo not shown) [1,1,1-Trifluoro-4-(2-methoxy-5-pyridin-3-ylphenyl)-4-methyl-2-(1H-pyrrolo[3,2-c]pyridin-2-ylmethyl)pentan-2-ol], the “activity as agonists” value is given as “potent agonists”.

With `CC(C)(CC(O)(Cc1cc2cc(-c3ccccc3)nnc2[nH]1)C(F)(F)F)c1cc(Cl)cc2c1OCC2` (stereo not shown) [4-(5-Chloro-2,3-dihydrobenzofuran-7-yl)-1,1,1-trifluoro-4-methyl-2-(3-phenyl-7H-pyrrolo[2,3-c]pyridazin-6-ylmethyl)pentan-2-ol], the “activity as agonists” value is reported as “potent agonists”. For the compound `CN1C=CC2=CC(CC(O)(CC(C)(C)c3cc(Cl)cc4c3OCC4)C(F)(F)F)NC2=C1` (stereo not shown) [4-(5-Chloro-2,3-dihydrobenzofuran-7-yl)-1,1,1-trifluoro-4-methyl-2-(6-methyl-1H-pyrrolo[2,3-c]pyridin-2-ylmethyl)pentan-2-ol], the “activity as agonists” value was “potent agonists”. Take `COc1cc(F)ccc1C(C)(C)CC(O)(Cc1[nH]c2cnccc2c1C)C(F)(F)F` (stereo not shown) [1,1,1-Trifluoro-4-(4-fluoro-2-methoxyphenyl)-4-methyl-2-(3-methyl-1H-pyrrolo[2,3-c]pyridin-2-ylmethyl)pentan-2-ol]: the “activity as agonists” value is “potent agonists”. The same measure for `CCN(C)c1cc2cc(CC(O)(CC(C)(C)c3cc(F)ccc3OC)C(F)(F)F)[nH]c2cn1` (stereo not shown) [2-[5-(Ethylmethylamino)-1H-pyrrolo[2,3-c]pyridin-2-ylmethyl]-1,1,1-trifluoro-4-(5-fluoro-2-methoxyphenyl)-4-methylpentan-2-ol]: “potent agonists”; for `CN(C)c1ccc(-c2ccc3[nH]c(CC(O)(CC(C)(C)c4cc(F)cc5c4OCC5)C(F)(F)F)cc3c2)cc1` (stereo not shown) [2-[5-(4-Dimethylaminophenyl)-1H-indol-2-ylmethyl]-1,1,1-trifluoro-4-(5-fluoro-2,3-dihydrobenzofuran-7-yl)-4-methylpentan-2-ol]: “potent agonists”. Then `CC(C)(CC(O)(Cn1ccc2c1CCCC2=O)C(F)(F)F)c1cc(-c2cncnc2)cc2c1OCC2` (stereo not shown) [1-[2-Hydroxy-4-methyl-4-(5-pyrimidin-5-yl-2,3-dihydrobenzofuran-7-yl)-2-trifluoromethylpentyl]-1,5,6,7-tetrahydroindol-4-one], with “agonists”; and `COc1ccc(-c2cccnc2)cc1C(C)(C)CC(O)(Cc1cc2ccncc2[nH]1)C(F)(F)F` (stereo not shown) [1,1,1-Trifluoro-4-(2-methoxy-5-pyridin-3-ylphenyl)-4-methyl-2-(1H-pyrrolo[2,3-c]pyridin-2-ylmethyl)pentan-2-ol], with “potent agonists”; and `Cc1ccc(F)cc1C(C)(C)CC(O)(Cc1cc2ccncc2[nH]1)C(C)(C)C` (stereo not shown) [5-(5-Fluoro-2-methylphenyl)-2,2,5-trimethyl-3-(1H-pyrrolo[2,3-c]pyridin-2-ylmethyl)hexan-3-ol], with “agonists”. Consider `Cc1ccc(F)cc1C(C)(C)CC(O)(Cc1cc2c(C)cncc2[nH]1)C(F)(F)F` (stereo not shown) [1,1,1-Trifluoro-4-(5-fluoro-2-methylphenyl)-4-methyl-2-(4-methyl-1H-pyrrolo[2,3-c]pyridin-2-ylmethyl)pentan-2-ol], for which the “activity as agonists” value was “potent agonists”.

As for `Cc1cc(C#N)cc2[nH]c(CC(O)(CC(C)(C)c3cc(S(C)(=O)=O)cc4c3OCC4)C(F)F)cc12` (stereo not shown) [2-[2-Difluoromethyl-2-hydroxy-4-(5-methanesulfonyl-2,3-dihydrobenzofuran-7-yl)-4-methylpentyl]-4-methyl-1H-indole-6-carbonitrile], the “activity as agonists” value is “agonists”. Take `CC(C)(CC(O)(Cc1cc2cnccc2[nH]1)C(F)(F)F)c1cccc(-c2cccnc2)c1` (stereo not shown) [1,1,1-Trifluoro-4-methyl-4-(3-pyridin-3-ylphenyl)-2-(1H-pyrrolo[3,2-c]pyridin-2-ylmethyl)pentan-2-ol]: the “activity as agonists” value is reported as “potent agonists”. For the compound `CSc1cc2c(c(C(C)(C)CC(O)(Cn3ccc4ncccc43)C(F)(F)F)c1)OCC2` (stereo not shown) [1,1,1-Trifluoro-4-methyl-4-(5-methylsulfanyl-2,3-dihydrobenzofuran-7-yl)-2-pyrrolo[3,2-b]pyridin-1-ylmethylpentan-2-ol], the “activity as agonists” value was “potent agonists”. With `COc1ccc(F)cc1C(C)(C)CC(O)(Cc1cc2cc(N(C)C)ncc2[nH]1)C(F)(F)F` (stereo not shown) [2-(5-Dimethylamino-1H-pyrrolo[2,3-c]pyridin-2-ylmethyl)-1,1,1-trifluoro-4-(5-fluoro-2-methoxyphenyl)-4-methylpentan-2-ol], the “activity as agonists” value was “potent agonists”. As to `CC(C)(CC(O)(Cc1cc2nc(Cl)ncc2[nH]1)C(F)(F)F)c1cc(Cl)cc2c1OCC2` (stereo not shown) [4-(5-Chloro-2,3-dihydrobenzofuran-7-yl)-2-(2-chloro-5H-pyrrolo[3,2-d]pyrimidin-6-ylmethyl)-1,1,1-trifluoro-4-methylpentan-2-ol], the “activity as agonists” value is on record as “potent agonists”. `CC(C)C(O)(Cc1cc2cnccc2[nH]1)CC(C)(C)c1cc(Cl)cc2c1OCC2` (stereo not shown) [5-(5-Chloro-2,3-dihydrobenzofuran-7-yl)-2,5-dimethyl-3-(1H-pyrrolo[3,2-c]pyridin-2-ylmethyl)hexan-3-ol]: the “activity as agonists” value is “agonists”.

Consider `Cc1nc(C#N)cc2[nH]c(CC(O)(CC(C)(C)c3cc(S(C)(=O)=O)cc4c3OCC4)C(F)(F)F)cc12` (stereo not shown) [2-[2-Hydroxy-4-(5-methanesulfonyl-2,3-dihydrobenzofuran-7-yl)-4-methyl-2-trifluoromethylpentyl]-4-methyl-1H-pyrrolo[3,2-c]pyridine-6-carbonitrile], for which the “activity as agonists” value is reported as “potent agonists”. As for `CC(C)(CC(O)(Cc1cc2cc(-c3ccc(F)cc3)ncc2[nH]1)C(F)(F)F)c1cccc(F)c1` (stereo not shown) [1,1,1-Trifluoro-4-(3-fluorophenyl)-2-[5-(4-fluorophenyl)-1H-pyrrolo[2,3-c]pyridin-2-ylmethyl]-4-methylpentan-2-ol], the “activity as agonists” value was “potent agonists”. Then `Cc1ccc(F)cc1C(C)(C)CC(O)(Cc1cc2ccncc2[nH]1)C1CC1` (stereo not shown) [2-Cyclopropyl-4-(5-fluoro-2-methylphenyl)-4-methyl-1-(1H-pyrrolo[2,3-c]pyridin-2-yl)pentan-2-ol], with “agonists”.

Turning to `CC(C)(CC(O)(Cc1cc2cc(-c3ccccc3)nnc2[nH]1)C(F)(F)F)c1ccccc1` (stereo not shown) [1,1,1-Trifluoro-4-methyl-4-phenyl-2-(3-phenyl-7H-pyrrolo[2,3-c]pyridazin-6-ylmethyl)pentan-2-ol], the “activity as agonists” value was “potent agonists”. On to `COc1ccc(-c2cccnc2)cc1C(C)(C)CC(O)(Cn1ccc2c1CCCC2=O)C(F)(F)F` (stereo not shown) [1-[2-Hydroxy-4-(2-methoxy-5-pyridin-3-ylphenyl)-4-methyl-2-trifluoromethylpentyl]-1,5,6,7-tetrahydroindol-4-one], for which the “activity as agonists” value is recorded as “agonists”.
